Laboratory results published in publication PMC5449500, “Comparative Effects of Chloride Channel Inhibitors on LRRC8/VRAC-Mediated Chloride Conductance” (Frontiers in Pharmacology, 2017).
Values joined by “and” are separate entries in the source; they are usually repeats but may differ in a detail not shown here. Identical values can stand only once. “Also recorded” adds a separate entry of the source. Like-named read-outs stand apart in the source and are kept apart here.

Experiments:
[1] = molecular target: T1, LRRC8/VRAC (Homo sapiens, UniProt Q8IWT6); test: Patch-clamp whole-cell recording of hypotonicity-activated VRAC/LRRC8 chloride current (ICl,swell); format: cell-based; conditions: for Inhibition at 10 μM (%) of chloride conductance / inhibition at 10 µM: 10 μM inhibitor, -100 mV; for Effect on hypotonic-activated Cl- currents at 20 μM / inhibition at 20 µM: 20 μM inhibitor; for inhibition at 10 µM: read-out: Inhibition at 10 μM (%) of chloride conductance; for Hill coefficient (chloride conductance): WT HEK-293, fitted concentration-response curve at -100 mV; for IC50: read-out: IC50 (chloride conductance)
T1 construct: tested in wild-type HEK-293 cells expressing LRRC8 proteins; endogenous in cells; host or cells: wild-type HEK-293 cells
T1 sequence (Q8IWT6 1-810): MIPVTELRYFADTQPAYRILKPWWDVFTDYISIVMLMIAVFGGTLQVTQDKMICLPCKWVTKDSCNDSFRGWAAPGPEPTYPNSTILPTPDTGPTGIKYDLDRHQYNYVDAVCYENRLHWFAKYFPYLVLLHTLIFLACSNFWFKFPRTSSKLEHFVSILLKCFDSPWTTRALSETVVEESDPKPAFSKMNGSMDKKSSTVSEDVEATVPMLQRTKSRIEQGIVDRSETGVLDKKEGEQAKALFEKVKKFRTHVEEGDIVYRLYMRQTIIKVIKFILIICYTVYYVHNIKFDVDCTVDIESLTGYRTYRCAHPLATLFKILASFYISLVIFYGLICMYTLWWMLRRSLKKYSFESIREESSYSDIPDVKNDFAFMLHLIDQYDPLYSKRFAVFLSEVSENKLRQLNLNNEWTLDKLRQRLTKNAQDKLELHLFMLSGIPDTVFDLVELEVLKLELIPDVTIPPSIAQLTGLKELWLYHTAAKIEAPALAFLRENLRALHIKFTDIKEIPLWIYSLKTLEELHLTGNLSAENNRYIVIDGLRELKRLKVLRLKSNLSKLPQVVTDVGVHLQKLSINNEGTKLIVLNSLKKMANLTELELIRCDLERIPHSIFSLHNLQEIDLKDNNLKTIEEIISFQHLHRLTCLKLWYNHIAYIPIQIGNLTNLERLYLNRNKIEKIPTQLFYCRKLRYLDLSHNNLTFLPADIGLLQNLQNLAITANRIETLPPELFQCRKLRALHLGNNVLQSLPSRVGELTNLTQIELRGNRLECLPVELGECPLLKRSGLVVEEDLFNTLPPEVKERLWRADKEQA
T1 sequence (Q7L1W4 1-858 partner): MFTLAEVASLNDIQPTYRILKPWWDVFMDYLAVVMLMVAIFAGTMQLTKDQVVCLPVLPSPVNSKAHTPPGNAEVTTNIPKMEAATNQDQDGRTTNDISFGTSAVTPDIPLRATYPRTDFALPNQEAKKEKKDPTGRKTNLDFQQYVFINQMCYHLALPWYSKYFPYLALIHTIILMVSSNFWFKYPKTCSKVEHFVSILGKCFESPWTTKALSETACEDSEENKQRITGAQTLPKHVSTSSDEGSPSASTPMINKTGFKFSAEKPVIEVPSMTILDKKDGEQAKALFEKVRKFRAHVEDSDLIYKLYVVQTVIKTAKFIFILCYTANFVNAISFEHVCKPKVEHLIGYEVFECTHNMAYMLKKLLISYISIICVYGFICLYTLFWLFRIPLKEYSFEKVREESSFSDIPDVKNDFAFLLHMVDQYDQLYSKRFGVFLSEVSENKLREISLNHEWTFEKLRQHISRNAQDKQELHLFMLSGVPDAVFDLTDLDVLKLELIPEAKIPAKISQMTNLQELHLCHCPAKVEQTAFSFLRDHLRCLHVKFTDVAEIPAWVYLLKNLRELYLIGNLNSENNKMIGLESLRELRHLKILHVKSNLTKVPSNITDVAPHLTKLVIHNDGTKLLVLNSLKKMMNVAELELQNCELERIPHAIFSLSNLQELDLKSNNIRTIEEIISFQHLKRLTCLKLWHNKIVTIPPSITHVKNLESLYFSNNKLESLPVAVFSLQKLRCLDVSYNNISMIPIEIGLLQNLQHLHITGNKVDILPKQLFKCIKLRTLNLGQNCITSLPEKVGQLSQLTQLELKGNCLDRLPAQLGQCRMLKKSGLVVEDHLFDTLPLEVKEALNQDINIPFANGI
Experimental: The ruptured-whole-cell configuration of the patch-clamp technique was used to measure the activation of VRAC conductance during hypotonic experimental conditions. Cell currents and cell capacitances were recorded using an EPC 10 amplifier [HEKA Elektronik, Lambrecht (Pfalz), Germany]. The membrane potential of the cells was held at -50 mV, and 400-ms pulses from -100 to +100 mV were applied in 20-mV increments. The I/V relationships were expressed as the mean current amplitudes measured at all potentials at 6–10 ms after the pulse onset.
The pipette solution contained (in mM) 140 NMDGCl, 10 HEPES (pH 7.4, HCl), 5 EGTA and 5 MgATP (290 mOsm.l^-1). The normal NMDGCl bath solution contained (in mM) 140 NMDGCl, 10 HEPES (pH 7.4, HCl), 1 CaCl2, 1 MgCl2, and ∼70 mannitol (340 mOsm.l^-1). This solution was designed to prevent the spontaneous activation of VRAC currents. Hypo-osmotic NMDGCl solution (270 mOsm.l^-1) was obtained by removing the mannitol from the NMDGCl bath solution.
Patch-clamp whole-cell recordings were performed in iso-osmotic bath solution (control condition), and the solution was rapidly exchanged to the hypo-osmotic solution. The hypotonic condition was maintained until the LRRC8/VRAC current had stabilized at its maximal value (3–6 min). The percent inhibition at each concentration of inhibitor was calculated at -100 mV holding potentials after at least 2 min of constant perfusion.
Concentration-response curves, IC50 and Hill slope were fitted and determined using the following equations:
Span=Top−Bottom y=Bottom+(Top−Bottom)/1+10^(LogIC50−x)^*Hill Slope

[2] = test system: HEK-293 WT cells; test: Regulatory volume decrease (RVD) after hypotonic challenge, calcein fluorescence self-quenching; format: cell-based, human; conditions: for RVD inhibition at 10 μM (%) / inhibition at 10 µM: 10 μM inhibitor, after 30 min; for inhibition at 10 µM: Homo sapiens, HEK293, 0.5 h; for Effect on RVD at 30 μM: 30 μM inhibitor
Experimental: Measurements of changes in cell volume were performed using the calcein fluorescence self-quenching method. Briefly, calcein at high concentrations undergoes spontaneous self-quenching, and its fluorescence intensity decreases with increasing calcein concentration ([Capó-Aponte et al., 2005]). The variation in the fluorescence due to self-quenching indirectly reflects the volume of the cell.
HEK-293 WT and HEK-293 LRRC8-KO cells were cultured on polylysine-coated 24-well plates for 2 days. The cells were then loaded for 40 min with a solution containing 10 μM calcein-AM (Sigma–Aldrich) and washed 3 times with 1 ml of isotonic medium containing (in mM) 145 NaCl, 5 KCl, 1 MgCl2, 1 CaCl2, 10 glucose, and 10 HEPES pH 7.4 (300 mOsm.l^-1). Under this control experimental condition, basal fluorescence was measured every 90 s for 10 min using a plate reader (Ex: 460 nm, Em: 520 nm; Synergy HT, Biotek). After the baseline recording period (10 min), the medium was exchanged and replaced with iso- or hypo-osmotic bath solution adjusted to 200, 150, or 100 mOsm.l^-1. The change in fluorescence induced by replacement of the medium was then recorded over the following 50 min. The experiments were performed under control conditions and in the presence of various concentrations of inhibitors. The percent inhibition resulting from exposure of the cells to solutions containing a concentration of 10 μM for each inhibitor was calculated after maintaining the cells in hypotonic bath solution in the presence of the inhibitor for 30 min.

[3] = test system: CFTR; conditions: cited from earlier work
[4] = test system: ICl,swell; set-up: method as in Decher et al. (2001); conditions: ref Decher et al. (2001); cited from earlier work
[5] = test system: other chloride channels (CFTR, CaCC, ClC); set-up: method as in Decher et al. (2001); conditions: 10 μM; ref Decher et al. (2001); cited from earlier work
[6] = test system: CaCC; set-up: method as in Namkung et al. (2013); conditions: ref Namkung et al. (2013); cited from earlier work
[7] = whole-cell, WT HEK-293, hypotonic solution 270 mOsm.l^-1, calculated at -100 mV
[8] = 100 mOsm.l^-1 hypotonic challenge
[9] = 100 mOsm.l^-1 hypotonic challenge, 10 µM

O=C(O)c1ccc(/C=C2\SC(=S)N(c3cccc(C(F)(F)F)c3)C2=O)cc1 [CFTRinh-172]
Inhibition at 10 μM (%) of chloride conductance ([1]; whole-cell): No effect
Effect on hypotonic-activated Cl- currents at 20 μM ([1]; whole-cell): minor effect
Effect on hypotonic-activated Cl- currents at up to 10 μM ([1]; concentrations of up to 10 μM, whole-cell): almost no effect
Effect on VRAC current at up to 20 μM ([1]; concentrations of up to 20 μM): no significant effect
IC50 (chloride conductance) [1, 7]: No effect
RVD inhibition at 10 μM (%) [2, 8]: No effect
Effect on RVD at up to 20 μM ([2]; concentrations of up to 20 μM): no significant effect
Effect on RVD at doses lower than 30 μM ([2]; lower doses than 30 μM): ineffective
IC50 ([3]; ref Ma et al., 2002, read-out: IC50 (CFTR)): 0.3 µM

CCCCC1(C2CCCC2)Cc2cc(OCCCC(=O)O)c(Cl)c(Cl)c2C1=O (stereo not shown) [DCPIB, 4-(2-butyl-6,7-dichlor-2-cyclopentyl-indan-1-on-5-yl) oxybutyric acid]
inhibition at 10 µM ([1]; whole-cell): 82.7 ± 3.2%
Effect on hypotonic-activated Cl- currents at 20 μM ([1]; whole-cell): full blockade
inhibition at 20 µM ([1]; whole-cell): > 90%
Hill coefficient (chloride conductance) ([1]; whole-cell): 2.9 ± 1.1
IC50 [1, 7]: 5 µM and 4.8 µM
RVD inhibition at 10 μM (%) [2, 9]: 35.8 ± 3.1%
Effect on RVD at 20 μM ([2]; 20 μM inhibitor, 100 mOsm.l^-1 hypotonic challenge): maximal effect; also recorded: completely impaired volume regulation
inhibition at 10 µM [2, 8]: 36 ± 3%
Block of ICl,swell at 10 μM [4]: more than 80%
Effect on other chloride channels (CFTR, CaCC, ClC) [5]: without any effect

O=C(CNc1ccc2ccccc2c1)N/N=C/c1cc(Br)c(O)c(Br)c1O [GlyH-101]
inhibition at 10 µM ([1]; whole-cell): 46.6 ± 8.8%
inhibition at 20 µM ([1]; whole-cell): > 85%
Hill coefficient (chloride conductance) ([1]; whole-cell): 0.9 ± 0.4
IC50 [1, 7]: 10 µM and 9.5 µM
IC50 ([3]; ref Muanprasat et al., 2004, read-out: IC50 for CFTR): ~5 µM

O=C(O)c1cccnc1Nc1cccc(C(F)(F)F)c1 [NFA, niflumic acid]
Inhibition at 10 μM (%) of chloride conductance ([1]; whole-cell, 10 µM): 22.5 ± 4.0%
inhibition at 10 µM ([1]; whole-cell): 23 ± 4%
Effect on hypotonically activated Cl- current at 100 μM ([1]; 100 μM inhibitor, whole-cell): maximal inhibitory effect
Hill coefficient (chloride conductance) ([1]; whole-cell): 0.8 ± 0.4
IC50 [1, 7]: 55 µM and 55.2 µM
RVD inhibition at 10 μM (%) [2, 9]: 19.9 ± 7.2%
Effect on RVD at 30 μM [2, 8]: maximally inhibited the RVD process
inhibition at 10 µM [2, 8]: 20 ± 7%

Cc1ccc(C2Nc3ccccc3-n3c(-c4ccccc4)c4c(=O)n(C)c(=O)n(C)c4c32)o1 (stereo not shown) [PPQ-102]
Effect on ICl,swell at 1 μM ([1]; 1 μM inhibitor, whole-cell): ineffective
inhibition at 10 µM ([1]; whole-cell): 18.3 ± 11.3%
inhibition at 30 µM ([1]; 30 μM inhibitor, whole-cell): > 85%
Hill coefficient (chloride conductance) ([1]; whole-cell): 2.2 ± 1.2
IC50 [1, 7]: 20 µM and 19.6 µM
RVD inhibition at 10 μM (%) [2, 9]: 29.8 ± 5.9%
Effect on RVD at 30 μM [2, 8]: fully inhibited RVD
inhibition at 10 µM [2, 8]: 30 ± 6%
IC50 ([3]; ref Tradtrantip et al., 2009, read-out: IC50 (CFTR)): < 0.1 µM

CCc1c(C)nc(SCC(=O)Nc2nc(-c3ccc(OC)cc3)cs2)[nH]c1=O [T16Ainh-A01]
inhibition at 3 µM ([1]; 3 μM inhibitor, whole-cell, read-out: Inhibition of hypotonically activated Cl- current at 3 μM): 23 ± 5%
inhibition at 10 µM ([1]; whole-cell): 58.4 ± 2%
Hill coefficient (chloride conductance) ([1]; whole-cell): 1.5 ± 0.6
IC50 [1, 7]: 6 µM and 5.5 µM
RVD inhibition at 10 μM (%) [2, 9]: 39.8 ± 9.6%
Effect on RVD at 30 μM [2, 8]: maximal effect
inhibition at 10 µM [2, 8]: 40 ± 10%
IC50 [6]: 1 µM
